Experimental data published in ChEMBL document CHEMBL4196052, “Rational modifications on a benzylidene-acrylohydrazide antiviral scaffold, synthesis and evaluation of bioactivity against Chikungunya virus” (Eur J Med Chem, 2018).

Key:
[1] = system: Chikungunya virus; assay: Antiviral activity against Chikungunya virus Indian Ocean strain 899 infected in African green monkey Vero cells assessed as inhibition of viral-induced cytopathic effect by measuring concentration required for maximum activity measured on day 5 post infection by MTS/PMS assay; format: functional, Indian Ocean 899
[2] = system: Chikungunya virus; assay: Antiviral activity against Chikungunya virus Indian Ocean strain 899 infected in African green monkey Vero cells assessed as inhibition of viral-induced cytopathic effect measured on day 5 post infection by MTS/PMS assay; format: functional, organism-based, Indian Ocean 899; details: for EC50 / EC90: Chikungunya virus, Indian Ocean 899, Vero, 120 h
[3] = Cytotoxicity against African green monkey Vero cells by MTS/PMS assay; format: cell-based; details: chlorocebus sabaeus
[4] = Selectivity index, ratio of CC50 for African green monkey Vero cells to EC50 for Chikungunya virus Indian Ocean strain 899 infected in African green monkey Vero cells; format: toxicity; details: read-out: Ratio CC50/EC50

| SMILES | Activity [1] | Imax [2] | EC50 [2] | EC90 [2] | CC50 [3] | selectivity ratio [4] |
| --- | --- | --- | --- | --- | --- | --- |
| Cc1ccc(-c2nnc(CCc3ccc(C(C)(C)C)cc3)o2)cc1 | 26 µM | 100% | 17.2 µM | 21.7 µM | – | – |
| CCOc1ccc(/C=N/NC(=S)NCCc2ccccc2)cc1OCC | 9.3 µM | 90% | 5.9 µM | 9.8 µM | 109 µM | 18 |
| CCOc1ccc(/C=N/NC(=O)CC(=O)c2ccc(C(C)(C)C)cc2)cc1OCC | 244 µM | 4% | > 244 µM | > 244 µM | 81 µM | – |
| O=C(N/N=C/c1ccc(O)cc1)c1nc2ccccc2[nH]1 | 357 µM | 33% | > 357 µM | > 357 µM | – | – |
| CCOc1ccc(/C=N/NC(=O)/C=C/c2ccc(C(C)C)cc2)cc1OCC | 8 µM | 30% | > 29.2 µM | > 29.2 µM | – | – |
| CCOc1ccc(/C=N/NC(=O)/C=C/c2ccc(C(C)(C)C)cc2)cc1OCC | 12.5 µM | 100% | – | 11 µM | – | – |
| CC(C)(C)c1ccc(/C=C/NC(=O)NCc2ccccc2)cc1 | 107 µM | 8% | > 107 µM | > 107 µM | – | – |
| Cc1ccc(/C=N/NC(=S)NCCc2ccccc2)cc1 | 56 µM | 12% | > 336 µM | > 336 µM | – | – |
| CCOc1ccc(/C=N/NC(=O)/C=C/c2ccc(-c3ccccc3)cc2)cc1OCC | 120 µM | 47% | > 80.2 µM | > 80.2 µM | – | – |
| O=C(N/N=C/c1ccc(O)cc1)c1cc2ccccc2[nH]1 | 358 µM | 51% | 348 µM | > 358 µM | – | – |
| CCOc1ccc(-c2nnc(/C=C/c3ccc(C(C)(C)C)cc3)o2)cc1OCC | 127.4 µM | 100% | 29 µM | 88.2 µM | – | – |
| Cc1ccc(/C=N/NC(=O)/C=C/c2ccc(-c3ccccc3)cc2)cc1 | 294 µM | 78% | 230 µM | > 294 µM | > 294 µM | > 1.3 |
| Cc1ccc(/C=N/NC(=O)c2nc3ccccc3[nH]2)cc1 | 120 µM | 14% | > 120 µM | > 120 µM | – | – |
| Cc1ccc(NC(=O)N/C=C/c2ccc(C(C)(C)C)cc2)cc1 | 61 µM | 16% | > 61 µM | > 61 µM | – | – |
| COc1ccc(/C=C/C(=O)N/N=C(\C)c2ccc(C3CCCCC3)cc2)cc1 | 66 µM | 9% | > 87.7 µM | > 87.7 µM | – | – |
| C/C(=N\NC(=O)c1cc2ccccc2[nH]1)c1ccc(C2CCCCC2)cc1 | 209 µM | 41% | > 209 µM | > 209 µM | – | – |
| C/C(=N\NC(=O)c1cnc2ccccc2c1)c1ccc(C2CCCCC2)cc1 | 202 µM | 19% | > 202 µM | > 202 µM | – | – |
| CCOc1ccc(/C=N/NC(=O)/C=C/c2ccc(OC)cc2)cc1OCC | 45 µM | 8% | > 271 µM | > 271 µM | – | – |
| CCOc1ccc(/C=N/NC(=O)c2nc3ccccc3[nH]2)cc1OCC | 284 µM | 6% | > 284 µM | > 284 µM | – | – |

| SMILES | Activity [1] | Imax [2] | EC50 [2] | EC90 [2] | CC50 [3] | selectivity ratio [4] |
| --- | --- | --- | --- | --- | --- | --- |
| Cc1ccc(/C=N/NC(=O)c2cnc3ccccc3c2)cc1 | 346 µM | 27% | > 346 µM | > 346 µM | – | – |
| Cc1ccc(-c2nnc(CCc3ccccc3)o2)cc1 | 1 µM | 2% | > 378 µM | > 378 µM | – | – |
| Cc1ccc(CNC(=O)N/C=C/c2ccc(C(C)(C)C)cc2)cc1 | 103 µM | 10% | > 103 µM | > 103 µM | – | – |
| Cc1ccc(-c2nnc(Cc3ccc(C(C)(C)C)cc3)o2)cc1 | 27.2 µM | 100% | 17.9 µM | 22.7 µM | – | – |
| COc1ccc(CNC(=O)N/C=C/c2ccc(C(C)(C)C)cc2)cc1OC | 17 µM | 100% | 11.6 µM | 14.8 µM | – | – |
| Cc1ccc(/C=N/NC(=O)c2ccc3ccccc3c2)cc1 | 347 µM | 10% | > 347 µM | > 347 µM | – | – |
| Cc1ccc(/C=N/NC(=O)c2cc3ccccc3[nH]2)cc1 | 361 µM | 45% | > 361 µM | > 361 µM | – | – |
| CCOc1ccc(-c2nnc(CCc3ccccc3)o2)cc1OCC | 73.9 µM | 4% | > 98.4 µM | > 98.4 µM | – | – |
| Cc1ccc(/C=N/NC(=O)CC(=O)c2ccc(C(C)(C)C)cc2)cc1 | 74 µM | 13% | > 74 µM | > 74 µM | 84 µM | – |
| CC(C)(C)c1ccc(CCC(=O)Nc2nc3ccccc3[nH]2)cc1 | 311 µM | 41% | > 311 µM | > 311 µM | – | – |
| O=C(N/N=C/c1ccc(O)cc1)c1ccc2ccccc2n1 | 343 µM | <1% | > 343 µM | > 343 µM | – | – |
| CCOc1ccc(/C=N/NC(=O)c2ccc3ccccc3c2)cc1OCC | 276 µM | 24% | > 276 µM | > 276 µM | – | – |
| CCN(CC)CCCC(C)Nc1ccnc2cc(Cl)ccc12 (centres undefined) [CHLOROQUINE] | – | – | – | 21 µM | – | – |
| COc1ccc(/C=C/C(=O)N/N=C/c2ccc(C)cc2)cc1 | 112 µM | 13% | > 112 µM | > 112 µM | – | – |
| Cc1ccc(CNC(=O)N/C=C/c2ccccc2)cc1 | 376 µM | 18% | > 376 µM | > 376 µM | – | – |
| Cc1ccc(C(=O)NNC(=O)/C=C/c2ccc(C(C)(C)C)cc2)cc1 | 99.1 µM | 9% | > 99.1 µM | > 99.1 µM | – | – |
| CC(C)(C)c1ccc(/C=C/C(=O)Nc2nc3ccccc3[nH]2)cc1 | 157 µM | 38% | > 157 µM | > 157 µM | – | – |
| C/C(=N\NC(=O)/C=C/c1ccc(C(F)(F)F)cc1)c1ccc(C2CCCCC2)cc1 | 241 µM | 12% | > 241 µM | > 241 µM | – | – |
| CCOc1ccc(C(=O)NNC(=O)/C=C/c2ccc(C(C)(C)C)cc2)cc1OCC | 6.3 µM | 11% | > 244 µM | > 244 µM | – | – |

| SMILES | Activity [1] | Imax [2] | EC50 [2] | EC90 [2] | CC50 [3] | selectivity ratio [4] |
| --- | --- | --- | --- | --- | --- | --- |
| C/C(=N\NC(=O)c1ccc2ccccc2n1)c1ccc(C2CCCCC2)cc1 | 269 µM | 13% | > 269 µM | > 269 µM | – | – |
| CC(C)(C)c1ccc(/C=C/NC(=O)Nc2ccc(O)cc2)cc1 | 4.1 µM | 100% | 9.1 µM | 11.9 µM | – | – |
| O=C(N/N=C/c1ccc(O)cc1)c1ccc2ccccc2c1 | 344 µM | 2% | > 344 µM | > 344 µM | – | – |
| O=C(N/C=C/c1ccccc1)Nc1ccc(O)cc1 | 197 µM | 2% | > 393 µM | > 393 µM | – | – |
| CCOc1ccc(/C=N/NC(=O)N/C=C/c2ccc(C(C)(C)C)cc2)cc1OCC | 100 µM | 49% | > 100 µM | > 100 µM | – | – |
| Cc1ccc2[nH]c(NC(=O)/C=C/c3ccc(C(C)(C)C)cc3)nc2c1 | 300 µM | 47% | > 300 µM | > 300 µM | – | – |
| Cc1ccc2[nH]c(NC(=O)CCc3ccc(C(C)(C)C)cc3)nc2c1 | 1.6 µM | 8% | > 298 µM | > 298 µM | – | – |
| Cc1ccc(NC(=O)N/C=C/c2ccccc2)cc1 | 396 µM | 21% | > 396 µM | > 396 µM | – | – |
| CCOc1ccc(/C=N/NC(=O)c2cc3ccccc3[nH]2)cc1OCC | 213 µM | 50% | > 213 µM | > 213 µM | – | – |
| CCOc1ccc(/C=N/NC(=O)c2ccc3ccccc3n2)cc1OCC | 275 µM | 8% | > 275 µM | > 275 µM | – | – |
| C/C(=N\NC(=O)c1ccc2ccccc2c1)c1ccc(C2CCCCC2)cc1 | 270 µM | 14% | > 270 µM | > 270 µM | – | – |
| Cc1ccc(/C=N/NC(=O)c2ccc3ccccc3n2)cc1 | 346 µM | 3% | > 346 µM | > 346 µM | – | – |
| C/C(=N\NC(=O)/C=C/c1ccc(-c2ccccc2)cc1)c1ccc(C2CCCCC2)cc1 | 30 µM | 15% | > 29.6 µM | > 29.6 µM | – | – |
| CCOc1ccc(-c2nnc(Cc3ccc(C(C)(C)C)cc3)o2)cc1OCC | 131.4 µM | 15% | 39.7 µM | – | – | – |
| CCOc1ccc(/C=N/NC(=O)c2cnc3ccccc3c2)cc1OCC | 275 µM | 3% | > 275 µM | > 275 µM | – | – |
| O=C(N/N=C/c1ccc(O)cc1)c1cnc2ccccc2c1 | 343 µM | <1% | > 343 µM | > 343 µM | – | – |
| Cc1ccc(-c2nnc(/C=C/c3ccc(C(C)(C)C)cc3)o2)cc1 | 157 µM | 8% | > 157 µM | > 157 µM | – | – |
| COc1ccc(CNC(=O)N/C=C/c2ccccc2)cc1OC | 320 µM | 13% | > 320 µM | > 320 µM | – | – |
| C/C(=N\NC(=O)/C=C/c1ccc(C(C)C)cc1)c1ccc(C2CCCCC2)cc1 | 193 µM | 13% | > 193 µM | > 193 µM | – | – |
